Results from patent US10098901B2, “Derivatives of oxazaphosphorines and therapeutic uses thereof” (INSTITUT GUSTAVE ROUSSY, priority 2014, dated 2018).
Like-named read-outs stand apart in the source and are kept apart here. Blank lines part the entries; values can stand above or below the molecule they belong to.

How the values were obtained:
[1] = tested on: RMS-1 cell line; test: cells; conditions: for IC50: read-out: In vitro Activity (IC50) RMS-1
Experimental: (§1) The experiments were conducted in the absence of cytochrome.
(§2) The cells were seeded in 96-well plates at optimal cell density determined previously and incubated with 100 μL of DMEM or RPMI containing 10% of FBS and 100 U/mL penicillin and 100 μg/mL streptomycin at 37° C., 5% CO2 in moist atmosphere. After 24 h, the cells were treated with 100 μL of the different pre-activated prodrugs at different concentrations:
(§3) Depending on the cell line, 2 to 5 h incubation are needed to obtain the optimum optical density which was measured at 490 nm wavelength using a microplate reader (EL808, Biotek Instrument). Untreated cells were used as control. Each compound concentration was tested in six replicates.

[2] = tested on: A673 (human Ewing Sarcoma cell line); test: cells; conditions: for IC50: Homo sapiens, read-out: In vitro Activity (IC50) A673
Experimental: as §1, §2, §3

[3] = Physico-chemical characterisation of nano-assemblies (DLS, Zeta potential, drug loading); assay type: physicochemical; conditions: nanoprecipitation acetone/water, no surfactant
Experimental: Nano-assemblies (NAs) from prodrugs Geranyloxy-IFO (3b) at a concentration of 2 mg/mL and 5 mg/ml, were prepared in a single step by nanoprecipitation of solution (8 mg/mL in acetone) in milliQ® water (ratio acetone:water 1:4; v:v). Formation of NAs occurred immediately without the use of any surfactant. The organic solvent was then evaporated at room temperature under vacuum using a Rotavapor® and the organic solvent-free colloidal dispersions were stored at 4° C.
The hydrodynamic diameter of the NAs was measured at 20° C. by Dynamic Light scattering using a Nanosizer ZS (Malvern Instrument Ltd, France). An amount of 20 μL of the suspension was diluted in 980 μL of Milli-Q water. The results give the mean hydrodynamic diameter of the dispersed NAs from three independent series of ten measurements. The standard deviation and the polydispersity index were also given.
The Zeta (ξ) potential was also determined by dilution of 20 μL of the suspension in 980 μL of a […] solution using a Nanosizer ZS (Malvern Instrument Ltd, France).

[4] = tested on: human rhabdomyosarcoma (RD cell line) xenografted in nude mice; test: Anti-tumor effect in vivo, RD xenograft; conditions: intravenous
Experimental: In vivo cytotoxic efficacy was evaluated first on a model of human rhabdomyosarcoma xenografted in nude mice. The model used is RD cell line. The cells were first amplified in culture and counted. Cells were injected subcutaneously in both flanks of each mouse.
The administration was performed by intravenous route at day 0.

[5] = In vitro release of 4-HO-IFO in mouse plasma; assay type: in vitro ADME; conditions: 37° C., without activation by cytochromes
[6] = tested on: A673 (human Ewing Sarcoma cell line); conditions: comparison values for squalenoyl derivatives (WO2012/076824); cited from earlier work
[7] = tested on: RMS-1 cell line; conditions: comparison values for squalenoyl derivatives (WO2012/076824); cited from earlier work
[8] = squalenoyl IFO derivatives described in WO2012/076824; cited from earlier work
[9] = RMS-1, 72 h, absence of cytochrome
[10] = A673, 72 h, absence of cytochrome

- IC50 ([1]; RMS1, 72 h): > 50 µM
- IC50 ([2]; A673, 72 h): > 200 µM
Structure (SMILES): CC(C)CCCC(C)CCO (stereo not drawn) [3,7-dimethyloctanol]
- cytotoxicity, in words [1]: The same results were observed
- cytotoxicity, in words [2]: The same results were observed

Structure (SMILES): CC(C)CCCC(C)CCOC1CCOP(=O)(NCCCl)N1CCCl (stereo not drawn) [13,17-Dimethyloctyloxy-IFO (3c), 13,17-Dimethyloctyloxy-IFO]
- IC50 ([1]; RMS1, 72 h): > 50 µM
- IC50 ([1]; RMS1, 96 h): 11.3 ± 5.8 µM
- cytotoxicity, in words [1, 9]: did not exhibit significant cytotoxicity
- cytotoxicity, in words [2, 10]: did not exhibit significant cytotoxicity
- IC50 ([2]; A673, 72 h): > 200 µM
- IC50 ([2]; A673, 96 h): 24.5 ± 2.1 µM
- formation of nanoparticles (self-assembly) [3]: did not provide any suspension of nanoparticles

Structure (SMILES): CC(C)=CCC/C(C)=C/CO [Geraniol, (trans)-3,7-dimethyl-2,6-octadien-1-ol]
- tumor volume growth (Vtjx/Vtj0) ([4]; single dose 59 mg/kg, day 0): No tumor growth inhibition
- cytotoxicity, in words [1]: The same results were observed
- IC50 ([1]; RMS1, 72 h): > 50 µM
- cytotoxicity, in words [2]: The same results were observed
- IC50 ([2]; A673, 72 h): > 200 µM

Structure (SMILES): CC(C)=CCC/C(C)=C/COC1CCOP(=O)(NCCCl)N1CCCl (stereo not drawn) [Geranyloxy-IFO (bulk) (3b), Geranyloxy-IFO]
- release of 4-HO-IFO, in words [5]: released
- tumor volume growth (Vtjx/Vtj0) ([4]; single dose 158 mg/kg (equivalent to 100 mg/kg of IFO), day 0, free form, listed as Geranyloxy-IFO): showed antitumor activity
- tumor volume growth (Vtjx/Vtj0) ([4]; single dose 158 mg/kg (equivalent to 100 mg/kg of IFO), day 0, free form, listed as geranyloxy-IFO): prevent the tumor growth
- IC50 ([1]; RMS1, 72 h): 9.3 ± 4.2 µM
- cytotoxicity, in words [1, 9]: significant cytotoxicity
- cytotoxicity, in words [2, 10]: significant cytotoxicity
- IC50 ([2]; A673, 72 h): 25.3 ± 1.5 µM
- formation of nanoparticles (self-assembly) ([3]; listed as Geranyloxy-IFO): gave satisfactory NAs
- formation of nanoparticles (self-assembly) ([3]; listed as geranyloxy-IFO): able to self-organize into nanoparticles

Structure (SMILES): O=P1(NCCCl)OCCCN1CCCl (stereo not drawn) [IFO, ifosfamide]
- tumor volume growth (Vtjx/Vtj0) ([4]; single dose 300 mg/kg, day 0): antitumor activity
- cytotoxicity, in words [1]: did not exhibit significant cytotoxicity
- IC50 ([1]; RMS1, 72 h): > 50 µM
- cytotoxicity, in words [2]: did not exhibit significant cytotoxicity
- IC50 ([2]; A673, 72 h): > 200 µM

- IC50 ([1]; RMS1, 72 h): > 500 µM
- IC50 ([2]; A673, 72 h): > 200 µM
Structure (SMILES): CCCCCO [Pentanol, pentanol]
- cytotoxicity, in words [1]: The same results were observed
- cytotoxicity, in words [2]: The same results were observed

Structure (SMILES): CCCCCOC1CCOP(=O)(NCCCl)N1CCCl (stereo not drawn) [Pentyloxy-IFO (3a), Pentyloxy-IFO]
- IC50 ([1]; RMS1, 72 h): 5.3 ± 1.7 µM
- IC50 ([2]; A673, 72 h): 17.7 ± 2.3 µM
- formation of nanoparticles (self-assembly) [3]: did not provide any suspension of nanoparticles

Structure (SMILES): CC(C)=CCC/C(C)=C/CC/C(C)=C/CC/C=C(\C)CC/C=C(\C)CCCOC1CCOP(=O)(NCCCl)N1CCCl (stereo not drawn) [SQ-IFO]
- IC50 [6]: 22 ± 5 µM
- IC50 [7]: 11.4 ± 5 µM
- drug loading [8]: 40.4%
- mean diameter [8]: 147 nm

Structure (SMILES): CC(C)=CCC/C(C)=C/CC/C(C)=C/CC/C=C(\C)CC/C=C(\C)CCC(=O)NCCSC1CCOP(=O)(NCCCl)N1CCCl (stereo not drawn) [SQ-thio-IFO]
- IC50 [6]: 23.2 ± 1.3 µM
- IC50 [7]: 33 ± 1.8 µM
- drug loading [8]: 36.3%
- mean diameter [8]: 170 nm
